Key:
Format in all cases: cell-based
CTS cell line = assay: Intracellular 8-Cl-ATP/ATP by LC-MS/MS, CTS; conditions: for difference in intracellular accumulation of 8-Cl-ATP on inhibiting hENT1: with NBTI
Procedure: Cell lines with 3×10^6 cells/ml were used. Cells were treated with 1 μl of 20 μM of each 8-Cl-A, compound A, compound B and compound D and incubated for 2 hours at 37° C. with 5% CO2. After incubation, the cells were centrifuged (ambient, 1200 rpm, 5 minutes), the supernatant was removed, and the pellet was washed with lml of PBS and centrifuged (ambient, 1200 rpm, 5 minutes). The supernatant was removed, the pellet was reconstituted in 100 μl of PBS and 100 μl of 0.8M perchloric acid. This was then centrifuged (ambient, 1200 rpm, 5 minutes) and 180 μl of the supernatant was transferred to new tubes and stored at −80° C. until time of analysis.
For inhibitor studies the cell lines were treated in the same way as described above but before treatment with drugs, a number of inhibitors were added: • 1) Nitrobenzylthioinosine (NBTI) (Sigma-Aldrich, St. Louis, Mo.) inhibits hENT1. • 2) A-134974 dihydrochloride hydrate (Sigma-Aldrich, St. Louis, Mo.) inhibits adenosine kinase. • 3) EHNA hydrochloride (Sigma-Aldrich, St. Louis, Mo.) inhibits adenosine deaminase.
Cells were treated with 1 μl of 10 μM of each inhibitor and left for 5 minutes before adding the drug. The cells were then incubated for 2 hours at 37° C. with 5% CO2.
The analytes were resolved using an ultra-performance liquid chromatography system (Accela UPLC, Thermo Scientific, UK) equipped with a Biobasic A×5 μm, 50×2.1 mm column (Thermo Electron Corporation, Murrieta, Calif., USA) and mobile phase consisting of a mixture of 10 mM NH4Ac in ACN/H2O (30:70 v/v), pH6.0 (A), and 1 mM NH4Ac in ACN/H2O (30:70 v/v), pH10.5 (B). The mobile phase gradient was employed, comprising: buffer A=95% at 0-0.5 minutes, from 95 to 0% over 1.25 minutes, held at 0% for 1.75 minutes, from 0-95% over 0.1 minutes, ending with 95% for 2.9 minutes, all at a flow rate of 500 μl/min.
For compounds detection a triple stage quadrupole Vantage mass spectrometry system (Thermo Scientific, UK) equipped with an electrospray ion source was used. Samples were analysed in the Multiple Reaction Monitoring, negative ion modes at spray voltage 3000V.
The dose-response curves of cytotoxicity of the drugs was determined using non-linear regression analysis of percentage cell viability versus concentration and EC50 values were obtained. The intracellular assay was conducted in five repeats for each condition. Intracellular assay was determined using paired T test (two-tailed) analysis of 8-ChloroATP/ATP concentration and p values were obtained. Drug stability in human plasma was determined using two-way ANOVA analysis. For all the analysis, Prism Software program (GraphPad Software) was used.

T24/83 = assay: Viability assay, T24/83
Procedure: (§1) In vitro viability assay were performed to assess the effects of compounds on cell viability in selected cell lines over ˜72 hrs using the CellTiterGlo (CTG, Promega-G7573) assay. The tests were performed in duplicates with treatment of compounds at 9 points, 3.16 folds titration in 96 well plates over ˜72 hrs. The compound starting concentrations were 198 μM. Cell viability assay using CellTiterGlo in 96-well plate were performed. Compound treatment 72 hrs, standard growth conditions, duplicates. Compounds were dissolved to 40 mM with thawed […]. Compounds were serially diluted at 3.16 fold in thawed DMSO, and warmed to 37° C. before being dissolved in media (2 μl+200 μl). After compounds were dissolved in media, media containing compounds were warmed to 37° C. in incubator and then compounds in media were added to cell plates (50 μl+50 μl) in duplicates. The compounds' final concentrations were from […] to 19.9 nM. All compound solubilities were checked and recorded again, then the plates were transferred to CO2 tissue culture incubator immediately and incubated for 3 days. DMSO final concentration is 0.5%.

CAL27 = assay: Viability assay, CAL27
Procedure: as §1

| Structure (SMILES) | difference in intracellular accumulation of 8-Cl-ATP on inhibiting adenosine kinase (CTS cell line; with A-134974) | difference in intracellular accumulation of 8-Cl-ATP on inhibiting hENT1 (CTS cell line) | 8-Cl-ATP/ATP ratio after inhibiting adenosine kinase (CTS cell line; with A-134974) | Top in. % T24/83 (T24/83) [%] | EC50 (T24/83; T24/83, read-out: Ab EC50 (μM) T24/83) [µM] | Top in. % CAL27 (CAL27) [%] | EC50 (CAL27; Homo sapiens, CAL-27, read-out: Ab EC50 (μM) CAL27) [µM] |
| --- | --- | --- | --- | --- | --- | --- | --- |
| Nc1ncnc2c1nc(Cl)n2[C@@H]1O[C@H](COP(=O)(NCC(=O)OC2CCCCC2)Oc2ccccc2)[C@@H](O)[C@H]1O (mixture of isomers) [Compound A, Cyclohexyl 2-(((((2R,3S,4R,5R)-5-(6-amino-8-chloro-9H-purin-9-yl)-3,4-dihydroxy-tetrahydrofuran-2-yl)methoxy)(phenoxy)phosphoryl)amino)acetate] | did not produce significant difference | did not produce significant difference | – | – | – | – | – |
| Nc1ncnc2c1nc(Cl)n2[C@@H]1O[C@H](COP(=O)(NCC(=O)OCc2ccccc2)Oc2ccccc2)[C@@H](O)[C@H]1O (mixture of isomers) [Compound B, Benzyl 2-(((((2R,3S,4R,5R)-5-(6-amino-8-chloro-9H-purin-9-yl)-3,4-dihydroxytetra-hydrofuran-2-yl)methoxy)(phenoxy)phosphoryl)amino)acetate] | did not produce significant difference | did not produce significant difference | – | – | – | – | – |
| C[C@H](NP(=O)(OC[C@H]1O[C@@H](n2c(Cl)nc3c(N)ncnc32)C(O)C1O)Oc1cccc2ccccc12)C(=O)OCc1ccccc1 (stereo partly drawn) [Compound D, (2S)-Benzyl 2-(((((2R,3S,4R,5R)-5-(6-amino-8-chloro-9H-purin-9-yl)-3,4-dihydroxy-tetrahydrofuran-2-yl)methoxynaphthalene-1-yloxy)phosphoryl)amino)propanoate] | – | did not produce significant difference | – | – | – | – | – |
| Nc1ncnc2c1nc(Cl)n2[C@@H]1O[C@H](CO)[C@@H](O)[C@H]1O [8-chloroadenosine, 8-Chloroadenosine, reference compound] | – | – | almost zero | 77.5 | 2 | 76.5 | 1.73 |
